Laboratory results from BigSolDB 2.1.

## O=C(O)CC(O)C(=O)O (configuration not stated)
In 1,4-dioxane, 303.2 K
  solubility (mole fraction): 0.14
In 1,4-dioxane, 308.2 K
  solubility (mole fraction): 0.153
In 1,4-dioxane, 313.2 K
  solubility (mole fraction): 0.16
In 1,4-dioxane, 318.2 K
  solubility (mole fraction): 0.168
In 1,4-dioxane, 323.2 K
  solubility (mole fraction): 0.177
In 1,4-dioxane, 328.2 K
  solubility (mole fraction): 0.192
In 1,4-dioxane, 333.2 K
  solubility (mole fraction): 0.21
In THF, 303.2 K
  solubility (mole fraction): 0.145
In THF, 308.2 K
  solubility (mole fraction): 0.156
In THF, 313.2 K
  solubility (mole fraction): 0.191
In THF, 318.2 K
  solubility (mole fraction): 0.199
In THF, 323.2 K
  solubility (mole fraction): 0.219
In THF, 328.2 K
  solubility (mole fraction): 0.235
In THF, 333.2 K
  solubility (mole fraction): 0.253
In acetonitrile, 303.2 K
  solubility (mole fraction): 0.007
In acetonitrile, 308.2 K
  solubility (mole fraction): 0.009
In acetonitrile, 313.2 K
  solubility (mole fraction): 0.011
In acetonitrile, 318.2 K
  solubility (mole fraction): 0.012
In acetonitrile, 323.2 K
  solubility (mole fraction): 0.015
In acetonitrile, 328.2 K
  solubility (mole fraction): 0.017
In acetonitrile, 333.2 K
  solubility (mole fraction): 0.021
In ethanol, 303.2 K
  solubility (mole fraction): 0.082
In ethanol, 308.2 K
  solubility (mole fraction): 0.091
In ethanol, 313.2 K
  solubility (mole fraction): 0.101
In ethanol, 318.2 K
  solubility (mole fraction): 0.115
In ethanol, 323.2 K
  solubility (mole fraction): 0.121
In ethanol, 328.2 K
  solubility (mole fraction): 0.129
In ethanol, 333.2 K
  solubility (mole fraction): 0.134
In isopropanol, 303.2 K
  solubility (mole fraction): 0.036
In isopropanol, 308.2 K
  solubility (mole fraction): 0.045
In isopropanol, 313.2 K
  solubility (mole fraction): 0.055
In isopropanol, 318.2 K
  solubility (mole fraction): 0.071
In isopropanol, 323.2 K
  solubility (mole fraction): 0.094
In isopropanol, 328.2 K
  solubility (mole fraction): 0.118
In isopropanol, 333.2 K
  solubility (mole fraction): 0.134
In water, 303.2 K
  solubility (mole fraction): 0.066
In water, 308.2 K
  solubility (mole fraction): 0.084
In water, 313.2 K
  solubility (mole fraction): 0.106
In water, 318.2 K
  solubility (mole fraction): 0.132
In water, 323.2 K
  solubility (mole fraction): 0.154
In water, 328.2 K
  solubility (mole fraction): 0.17
In water, 333.2 K
  solubility (mole fraction): 0.184
